From patent publication US20010039287A1, “AROMATIC SULFONE HYDROXAMIC ACID METALLOPROTEASE INHIBITOR” (priority 1997, published 2001) come the findings set out here.

The structures appear in SMILES notation. Counter-ions that a name gives are not always drawn. Like-named read-outs stand apart in the source and are kept apart here.

Assay in all cases: biochemical
In test [1] the target is T1, recombinant human MMP-2 (Homo sapiens, UniProt P08253).
T1 sequence (P08253 110-660): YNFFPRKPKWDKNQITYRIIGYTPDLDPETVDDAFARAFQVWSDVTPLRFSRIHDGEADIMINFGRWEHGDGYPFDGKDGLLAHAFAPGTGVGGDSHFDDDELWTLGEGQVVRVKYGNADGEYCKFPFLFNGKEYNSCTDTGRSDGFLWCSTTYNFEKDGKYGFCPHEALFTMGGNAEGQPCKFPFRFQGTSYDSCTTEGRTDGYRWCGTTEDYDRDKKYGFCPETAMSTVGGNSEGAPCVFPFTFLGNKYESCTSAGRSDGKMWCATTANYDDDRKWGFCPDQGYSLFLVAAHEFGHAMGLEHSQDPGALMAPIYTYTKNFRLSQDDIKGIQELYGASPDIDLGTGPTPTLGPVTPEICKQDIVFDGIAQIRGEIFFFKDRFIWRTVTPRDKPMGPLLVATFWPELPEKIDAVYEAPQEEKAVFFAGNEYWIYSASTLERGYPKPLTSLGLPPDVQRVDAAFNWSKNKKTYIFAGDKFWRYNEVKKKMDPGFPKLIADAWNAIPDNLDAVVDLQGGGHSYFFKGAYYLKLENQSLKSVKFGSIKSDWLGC

The target of test [2] is T2, recombinant human MMP-1 (Homo sapiens, UniProt P03956).
T2 construct: made in house; host or cells: transfected HT-1080 cells (provided by Dr. Harold Welgus, Washington University)
T2 sequence (P03956 100-469): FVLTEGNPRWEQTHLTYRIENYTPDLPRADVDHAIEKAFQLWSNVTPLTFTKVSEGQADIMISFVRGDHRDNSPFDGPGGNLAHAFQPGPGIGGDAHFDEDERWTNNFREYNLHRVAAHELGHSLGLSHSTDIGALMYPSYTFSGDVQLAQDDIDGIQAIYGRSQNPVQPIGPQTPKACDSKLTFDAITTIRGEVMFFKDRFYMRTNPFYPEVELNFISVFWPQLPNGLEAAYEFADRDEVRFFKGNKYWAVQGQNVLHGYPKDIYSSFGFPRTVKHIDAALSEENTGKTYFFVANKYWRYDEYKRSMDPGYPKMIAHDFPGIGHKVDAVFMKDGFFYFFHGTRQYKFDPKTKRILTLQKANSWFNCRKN
The note with it: read-out: MMP-1 IC50.

For test [3], the target named is recombinant human MMP-13 (Homo sapiens, UniProt P45452).
The mark [4] stands for this setting: Inhibition Table A, read-out: MMP-2 IC50.
[5] abbreviates: Inhibition Table A, read-out: MMP-13 IC50.
[6] abbreviates: Inhibition Table B, read-out: MMP-2 IC50.
Where [7] appears, read: Inhibition Table B, read-out: MMP-13 IC50.

Regarding `CC(C)(C)OC(=O)N1CCC(C(=O)NO)(S(=O)(=O)c2ccc(Oc3ccccc3)cc2)CC1` [Example 3], the values for the IC50 in test [1] (setting [4]), in test [2] (Inhibition Table A) and in test [3] (setting [5]) were 0.2 nM, 1140 nM and 0.3 nM, respectively.
For the compound `O=C(NO)/C(=C\c1ccccc1)S(=O)(=O)c1ccc(Oc2ccccc2)cc1` [Example 5], the figures for the 50% inhibitory concentration (IC50) in test [1] (setting [4]), in test [2] (Inhibition Table A) and in test [3] (setting [5]) were 1800 nM, above 10000 nM and 4800 nM, respectively.
Turning to `O=C(CS(=O)(=O)c1ccc(NC(=O)c2ccccc2)cc1)NO` [Example 7], the IC50 – broadly, the concentration at which inhibition is half-maximal – in test [1] (setting [4]) was 1.8 nM; in test [2] (Inhibition Table A) it was above 10000 nM.
In the case of `O=C(Nc1ccc(S(=O)(=O)C2(C(=O)NO)CCNCC2)cc1)c1ccccc1` [Example 8], the half-inhibitory concentration (IC50) in test [2] (Inhibition Table A) is above 10000 nM; in test [3] (setting [5]), 24.1 nM.
Consider `O=C(NO)C1(S(=O)(=O)c2ccc(N3CCC(c4ccccc4)CC3)cc2)CCOCC1` [Example 11], for which the IC50 was 4.4 nM in test [1] (MMP-2 IC50 (nM)), above 10000 nM in test [2] (Inhibition Table A) and 6 nM in test [3] (setting [5]).
With `CN1CCC(C(=O)NO)(S(=O)(=O)c2ccc(Oc3ccccc3)cc2)CC1` [Example 14], the half-maximal inhibitory concentration (IC50) in test [1] (setting [4]) is below 0.1 nM; in test [2] (Inhibition Table A), 464 nM; in test [3] (setting [5]), 0.1 nM.
In the case of `CS(=O)(=O)N1CCC(C(=O)NO)(S(=O)(=O)c2ccc(Oc3ccccc3)cc2)CC1` [Example 18], the IC50 in test [1] (MMP-2 IC50 (nM)) came to 0.3 nM; in test [2] (Inhibition Table A) it was 800 nM; in test [3], 0.5 nM.
On to `O=C(NO)C1(S(=O)(=O)c2ccc(SC3CCCCC3)cc2)CCNCC1` [Example 19], for which the half-inhibitory concentration (IC50) was 13.9 nM in test [1] (setting [4]), above 10000 nM in test [2] (Inhibition Table A) and 9 nM in test [3] (setting [5]).
In the case of `O=C(NO)C1(S(=O)(=O)c2ccc(N3CCN(c4ccccc4)CC3)cc2)CCOCC1` [Example 20], the concentration for half-maximal inhibition (IC50) in test [1] (MMP-2 IC50 (nM)) amounted to 23.5 nM; in test [2] (Inhibition Table A), 10000 nM; in test [3] (setting [5]), 1.7 nM.
Turning to `O=C(NO)C1(S(=O)(=O)c2ccc(Sc3ccc(F)cc3)cc2)CCNCC1` [Example 22], the IC50 was 0.9 nM in test [1] (setting [4]), above 10000 nM in test [2] (Inhibition Table A) and 1.2 nM in test [3] (setting [5]).
For `C#CCN1CCC(C(=O)NO)(S(=O)(=O)c2ccc(Oc3ccc(-n4ccnc4)cc3)cc2)CC1` [Example 23], the IC50 is below 0.1 nM in test [1] (setting [4]), 2280 nM in test [2] (Inhibition Table A) and 0.2 nM in test [3] (setting [5]).
For the compound `O=C(NO)C1(S(=O)(=O)c2ccc(Sc3ccc(Cl)cc3)cc2)CCOCC1` [Example 25], the IC50 in test [1] (setting [4]) is 2.6 nM; in test [2] (Inhibition Table A), above 10000 nM; in test [3] (setting [5]), 3 nM.
On the same counts, the results for `C=CCN1CCC(C(=O)NO)(S(=O)(=O)c2ccc(Sc3ccccc3)cc2)CC1` [Example 28] are below 0.1 nM, 770 nM and below 0.1 nM.
With `O=C(NO)C1(S(=O)(=O)c2ccc(Oc3ccccc3)cc2)CCN(CC2CC2)CC1` [Example 29], the IC50 in test [1] (setting [4]) was 0.15 nM; in test [2] (Inhibition Table A), above 10000 nM; in test [3], 0.3 nM.
As to `O=C(CN1CCCC1)N1CCC(C(=O)NO)(S(=O)(=O)c2ccc(Oc3ccccc3)cc2)CC1` [Example 31, N-hydroxy-4-[(4-phenoxyphenyl)sulfonyl]-1-(1-pyrrolidinylacetyl)-4-piperidine Carboxamide, Monohydrochloride], the IC50 is below 0.1 nM in test [1] (setting [6]), 370 nM in test [2] (Inhibition Table B) and 0.2 nM in test [3] (setting [7]).
On to `CC(C)N1CCC(C(=O)NO)(S(=O)(=O)c2ccc(Sc3ccccc3)cc2)CC1` [Example 34, N-hydroxy-1-(1-methylethyl)-4-[[4-(phenylthio)phenyl]sulfonyl]-4-piperidinecarboxamide, Monohydrochloride], for which the IC50 in test [1] (setting [6]) was 1.1 nM; in test [2], above 10000 nM; in test [3] (setting [7]), 1.2 nM.
Turning to `CC(=O)N1CCC(C(=O)NO)(S(=O)(=O)c2ccc(Oc3ccc4c(c3)OCO4)cc2)CC1` [Example 37, 1-acetyl-4-[[4-(1,3-benzodioxol-5-yloxy)phenyl]sulfonyl]-N-hydroxy-4-piperidinecarboxamide, Monohydrochloride], the IC50 in test [1] (setting [6]) worked out at 0.2 nM; in test [2] (Inhibition Table B) it was 1000 nM; in test [3] (setting [7]), 0.3 nM.
Regarding `C#CCN1CCC(C(=O)NO)(S(=O)(=O)c2ccc(Oc3cc(OC)cc(OC)c3)cc2)CC1` [Example 39, 4-[[4-(3,5-dimethoxyphenoxy)phenyl]sulfonyl]-N-hydroxy-1-(2-propynyl)-4-piperidinecarboxamide, Monohydrochloride], the half-inhibitory concentration (IC50) in test [1] (setting [6]) is 230 nM; in test [2] (Inhibition Table B), above 10000 nM; in test [3] (setting [7]) it was 24.5 nM.
With `C#CCN1CCC(C(=O)NO)(S(=O)(=O)c2ccc(Oc3cccc(C)c3)cc2)CC1` [Example 41, N-hydroxy-4-[[4-(3-methylphenoxy)phenyl]sulfonyl]-1-(2-propynyl)-4-piperidinecarboxamide, Monohydrochloride], the half-maximal inhibitory concentration (IC50) was 0.15 nM in test [1] (setting [6]), 1200 nM in test [2] (Inhibition Table B) and 0.2 nM in test [3] (setting [7]).
With `C#CCN1CCC(C(=O)NO)(S(=O)(=O)c2ccc(SC3CCCC3)cc2)CC1` [Example 45, 4-[[4-(Cyclopentylthio)-phenyl]sulfonyl]-N-hydroxy-1-(2-propynyl)-4-piperidinecarboxamide, Monohydrochloride], the IC50 is 2.5 nM in test [1] (setting [6]), 8800 nM in test [2] (Inhibition Table B) and 1.7 nM in test [3] (setting [7]).
For the compound `CC1(C)OCC(C(=O)NO)(S(=O)(=O)c2ccc(Oc3ccccc3)cc2)CO1` [Example 48], the results for the IC50 in test [1] (setting [6]), in test [2] (Inhibition Table B) and in test [3] (setting [7]) were 0.2 nM, 210 nM and 0.25 nM, respectively.
On to `O=C(NO)C1(S(=O)(=O)c2ccc(Sc3ccccc3)cc2)CCSCC1` [Example 49, tetrahydro-N-hydroxy-4-[[4-(phenylthio)phenyl]sulfonyl]-2H-thiopyran-4-carboxamide], for which the IC50 is 76.9 nM in test [1] (setting [6]), above 10000 nM in test [2] (Inhibition Table B) and 90 nM in test [3] (setting [7]).
On to `COc1ccc(Sc2ccc(S(=O)(=O)C3(C(=O)NO)CCSCC3)cc2)cc1` [Example 51, Tetrahydro-N-hydroxy-4-[[4-[(4-methoxypheny)thio]phenyl]sulfonyl]-2H-thiopyran-4-carboxamide], for which the IC50 worked out at 0.7 nM in test [1] (setting [6]), 5500 nM in test [2] (Inhibition Table B) and 1.3 nM in test [3] (setting [7]).
`O=C(NO)C1(S(=O)(=O)c2ccc(Sc3ccccc3)cc2)CCS(=O)(=O)CC1` [Example 52]: the IC50 is 2.7 nM in test [1] (setting [6]), above 10000 nM in test [2] (Inhibition Table B) and 5.9 nM in test [3] (setting [7]).
With `CNC(=O)C1CCCN(c2ccc(S(=O)(=O)C3(C(=O)NO)CCOCC3)cc2)C1` (centres unmarked) [Example 139], the concentration for half-maximal inhibition (IC50) in test [1] (setting [6]) came out at 1000 nM.
As for `O=C(C1CCCN(c2ccc(S(=O)(=O)C3(C(=O)NO)CCOCC3)cc2)C1)N1CCOCC1` (centres unmarked) [Example 140], the concentration for half-maximal inhibition (IC50) in test [1] (setting [6]) was 1000 nM.
Regarding `C[C@@H]1CN(C(=O)C2CCCN(c3ccc(S(=O)(=O)C4(C(=O)NO)CCOCC4)cc3)C2)C[C@H](C)O1` (some centres unmarked) [Example 169], the IC50 in test [2] (Inhibition Table B) is 10000 nM.
For `O=C(C1CCCN(c2ccc(S(=O)(=O)C3(C(=O)NO)CCOCC3)cc2)C1)N1CCCC2CCCCC21` (centres unmarked) [Example 170], the IC50 in test [2] (Inhibition Table B) came to 10000 nM.
As to `N[C@H]1CCN(C(=O)C2CCN(c3ccc(S(=O)(=O)C4(C(=O)NO)CCOCC4)cc3)CC2)C1` [Example 175], in test [2] (Inhibition Table B), the IC50 was found to be 10000 nM.
Take `C[C@@H]1CN(C(=O)C2CCN(c3ccc(S(=O)(=O)C4(C(=O)NO)CCOCC4)cc3)CC2)C[C@H](C)O1` [Example 176]: the IC50 in test [2] (Inhibition Table B) is above 10000 nM.
On to `O=C(C1CCN(c2ccc(S(=O)(=O)C3(C(=O)NO)CCOCC3)cc2)CC1)N1CCCC1` [Example 179], for which, in test [3] (setting [7]), the IC50 was determined as 100 nM.
As for `CCCCNC(=O)C1CCN(c2ccc(S(=O)(=O)C3(C(=O)NO)CCOCC3)cc2)CC1` [Example 181], the IC50 in test [2] (Inhibition Table B) worked out at 10000 nM.
Take `O=C(NC1CCCCCC1)C1CCN(c2ccc(S(=O)(=O)C3(C(=O)NO)CCOCC3)cc2)CC1` [Example 194]: in test [2] (Inhibition Table B), the half-inhibitory concentration (IC50) came to 10000 nM.
For the compound `O=C(NCc1ccncc1)C1CCN(c2ccc(S(=O)(=O)C3(C(=O)NO)CCOCC3)cc2)CC1` [Example 195], the half-inhibitory concentration (IC50) in test [1] (setting [6]) stood at 100 nM; in test [2] (Inhibition Table B), 10000 nM.
Regarding `COCCN1CCC(C(N)=O)(S(=O)(=O)c2ccc(Oc3ccc(OC(F)(F)F)cc3)cc2)CC1` [Example 444, 1-(2-methoxyethyl)-4-[[4-[4-(trifluoromethoxy)phenoxy]phenyl]sulfonyl]-4-piperidinecarboxamide], the 50% inhibitory concentration (IC50) in test [2] is above 10000 nM.
`C#CCN1CCC(C(N)=O)(S(=O)(=O)c2ccc(Sc3ccccc3)cc2)CC1` [Example 445, 4-[(4-phenylthiophenyl)sulfonyl]-1-(2—propynyl)-4-piperidinecarboxamide]: the IC50 in test [2] (Inhibition Table B) was above 10000 nM.
